Reference: patent US20070293543A1, “THRESHOLD BLOOD OMEPRAZOLE CONCENTRATION IS 50 NG/ML FOR THE MAINTENANCE OF INTRAGASTRIC pH OF AT LEAST 4.0 AFTER ORAL DOSING WITH CMA-OMEPRAZOLE, AGN 201904-Z” (priority 2006, published 2007)

Tested on: intragastric pH
Test: 24-hr intragastric pH monitoring (pharmacodynamics)
Format: in vivo, healthy male subjects
Conditions: oral once-daily dosing; for % time intragastric pH ≧4.0: 24-hr monitoring, p<0.0001 vs esomeprazole, dose level and day not stated
Protocol: Methods: Forty healthy male subjects received 240, 480, and 640 mg AGN 201904-Z or 40 mg esomeprazole orally once-daily for 5 days in a open-label, randomized, 4-way cross-over study. These doses were estimated to deliver molar equivalent omeprazole doses of 53%, 107%, and 143% of the esomeprazole dose, respectively. Pharmacokinetic (PK) blood samples were collected at 8 timepoints following the 1st and 5th dose of each treatment. Pharmacodynamics (PD) were evaluated via 24-hr intragastric ph monitoring before treatment and after the 1st and 5th doses of each treatment. Empirical PK/PD models were constructed for AGN 201904-Z data by regressing the % time that intragastric pH ≧4.0 during a 24-hr dosing period against the duration of time that blood omeprazole concentrations were greater than 8 different concentrations over the same 24-hr period. The possible threshold concentrations evaluated ranged from 10 to 400 ng/mL. The concentration that provided the best-fit was designated the threshold concentration. The best-fit concentration and model was chosen based on the WSSR, R^2, visual inspection, and AIC value. Results: Among the possible omeprazole threshold concentrations evaluated, 50 ng/mL was the best-fit concentration value in all of the models evaluated.

| SMILES | % time intragastric pH ≧4.0 | maintaining 24-hour intragastric pH ≧4.0, comparison with esomeprazole (healthy male subjects) |
| --- | --- | --- |
| COc1ccc2c(c1)nc([S+]([O-])Cc1ncc(C)c(OC)c1C)n2S(=O)(=O)c1ccc(OCC(=O)[O-])cc1.[Na+] (stereo not drawn) [AGN 201904-Z, sodium {4-[5-Methoxy-2-(4-methoxy-3,5-dimethyl-pyridin-2-ylmethanesulfinyl)-benzoimidazole-1-sulfonyl]-phenoxy}-acetate] | 80.1 % of 24-hr | more effective than esomeprazole |
| COc1ccc2nc([S@@+]([O-])Cc3ncc(C)c(OC)c3C)[nH]c2c1 [esomeprazole, reference compound] | 68.4 % of 24-hr |  |
